The record followed here is patent US20050288323A1, “Octahydro-indolizine and quinolizine and hexahydro-pyrrolizine” (priority 2000, published 2005).

SMILES strings stand for the structures.

For one experiment, the target named is T1, human histamine H3 receptor (Homo sapiens, UniProt Q9Y5N1).
T1 construct: One microgram of supercoiled H3 receptor cDNA was added to the cells and mixed; expressed in transfected cells; membranes
T1 sequence (Q9Y5N1 whole entry): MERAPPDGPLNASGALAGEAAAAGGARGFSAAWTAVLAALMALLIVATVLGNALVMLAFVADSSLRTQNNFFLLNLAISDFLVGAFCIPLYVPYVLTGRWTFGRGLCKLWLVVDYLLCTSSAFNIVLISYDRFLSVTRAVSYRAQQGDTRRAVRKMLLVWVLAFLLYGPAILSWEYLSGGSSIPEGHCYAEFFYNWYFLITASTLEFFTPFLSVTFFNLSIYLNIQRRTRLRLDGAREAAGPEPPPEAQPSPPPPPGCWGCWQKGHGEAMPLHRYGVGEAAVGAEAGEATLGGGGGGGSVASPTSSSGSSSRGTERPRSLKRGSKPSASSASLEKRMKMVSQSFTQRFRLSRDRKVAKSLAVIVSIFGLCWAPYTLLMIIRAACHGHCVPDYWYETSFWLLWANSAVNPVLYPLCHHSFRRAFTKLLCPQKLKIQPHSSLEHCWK
Put plainly: [3H]-N-methylhistamine binding. The settings on record: Table 1; [3H]-N-methylhistamine binding. As to the method: Thus in the present invention receptor binding was determined using the human histamine H3 receptor (See Lovenberg et al Mol. Pharmacol. 1999, 1107). Screening using the human receptor is particularly important for the identification of new therapies for the treatment of human disease. Conventional binding assays for example are determined using rat synaptosomes (Garbarg et al J. Pharmacol. Exp. Ther. 1992, 263, 304), rat cortical membranes (West et al Mol. Pharmacol. 1990, 610), and guinea pig brain (Korte et al Biochem. Biophys. Res. Commun. 1990, 978). Only limited studies have been performed previously using human tissue but these allude to significant differences in the pharmacology of rodent and primate receptors (West et al Eur. J. Pharmacol. 1999, 233).
Transfection of Cells with Human Histamine Receptor
A 10 cm tissue culture dish with a confluent monolayer of SK-N-MC cells was split two days prior to transfection. Using sterile technique the media was removed and the cells were detached from the dish by the addition of trypsin. One fifth of the cells were then placed onto a new 10 cm dish. Cells were grown in a 37° C. incubator with 5% CO2 in Minimal Essential Media Eagle with 10% Fetal Bovine Serum. After two days cells were approximately 80% confluent. These were removed from the dish with trypsin and pelleted in a clinical centrifuge. The pellet was then re-suspended in 400 μL complete media and transferred to an electroporation cuvette with a 0.4 cm gap between the electrodes (Bio-Rad #165-2088). One microgram of supercoiled H3 receptor cDNA was added to the cells and mixed. The voltage for the electroporation was set at 0.25 kV, the capacitance was set at 960 μF. After electroporation the cells were diluted into 10 mL complete media and plated onto four 10 cm dishes. Because of the variability in the efficiency of electroporation, four different concentrations of cells were plated. The ratios used were; 1:20, 1:10, 1:5, with the remainder of the cells being added to the fourth dish. The cells were allowed to recover for 24 hours before adding the selection media (complete media with 600 μg/mL G418). After 10 days dishes were analyzed for surviving colonies of cells. Dishes with well isolated colonies were used. Cells from individual colonies were isolated and tested. SK-N-MC cells were used because they give efficient coupling for inhibition of adenylate cyclase. The clones that gave the most robust inhibition of adenylate cyclase in response to histamine were used for further study.
[^3H]-N-methylhistamine Binding
Cell pellets from histamine H3 receptor-expressing SK-N-MC cells were homogenized in 20 mM TrisHCl/0.5 mM EDTA. Supernatants from a 800 g spin were collected, recentrifuged at 30,000 g for 30 minutes. Pellets were re-homogenized in 50 mM Tris/5 mM EDTA (pH 7.4). Membranes were incubated with 0.8 nM [^3H]-N-methylhistamine plus/minus test compounds for 45 min at 25° C. and harvested by rapid filtration over GF/C glass fiber filters (pretreated with 0.3% polyethylenimine) followed by four washes with ice cold buffer. Filters were dried, added to 4 mL scintillation cocktail and then counted on a liquid scintillation counter. Non-specific binding was defined with 10 μM histamine. The pKi values were calculated based on a Kd of 800 pM and a ligand concentration ([L]) of 800 pM according to the formula: Ki=(IC50)/(1+([L]/(Kd))
The compound `c1ccc(-c2ccc([C@H]3CC[C@H]4CCCCN43)cc2)cc1` (racemic) [Example 3] showed a Ki of 1000 nM.

The compound `c1ccc(Oc2ccc([C@@H]3CC[C@H]4CCCCN43)cc2)cc1` (racemic) [Example 12] registered a Ki of 600 nM.

The experiment is the same for the next values; noted with them: Table 2; [3H]-N-methylhistamine binding.
Regarding `c1cnc(Sc2ccc([C@H]3CC[C@H]4CCCCN43)cc2)nc1` (racemic) [Example 32], the Ki turned out to be 650 nM.

`c1cncc(Oc2ccc([C@H]3CC[C@H]4CCCCN43)cc2)c1` (racemic) [Example 29] showed a Ki of 150 nM.

The experiment is the same for the next values; noted with them: Table 3; [3H]-N-methylhistamine binding.
Turning to `O=Cc1ccc(-c2ccc([C@H]3CC[C@H]4CCCCN43)cc2)cc1` (racemic) [Example 52], the affinity corresponds to a Ki of 221 nM.

Still in this experiment, the particulars now being: Table 5; [3H]-N-methylhistamine binding.
Regarding `c1cc(CNc2ccc([C@H]3CC[C@H]4CCCCN43)cc2)cs1` (racemic) [Example 129], the Ki came to 648 nM.

With `c1ccc(CNc2ccc([C@H]3CC[C@H]4CCCCN43)cc2)cc1` (racemic) [Example 132], the Ki worked out at 511 nM.

Still in this experiment, the particulars now being: [3H]-N-methylhistamine 0.8 nM, membranes of H3 receptor-expressing SK-N-MC cells.
As for `C(#CCN1CCCCC1)COc1ccc([C@H]2CC[C@H]3CCCCN32)cc1` (relative stereo) [Example 84, trans-3-[4-(3-Piperidinylmethylpropargyloxy)phenyl]octahydroindolizine], the Ki amounted to 1.8 nM.

As for `c1cc([C@@H]2CC[C@@H]3CCCCN32)ccc1NCCCN1CCCCC1` (relative stereo) [Example 106, trans-3-[4-(N-3-Piperidylpropylamino)phenyl]octahydroindolizine], the Ki was found to be 1.5 nM.

In turn, `c1cc([C@@H]2CCC[C@@H]3CCCN32)ccc1OCCN1CCCCC1` (racemic) [Example 63, 5-[4-(2-Piperidinylethanoxy)phenyl]octahydroindolizine] returned a Ki of 5 nM.

Consider `N=C(N)N1CCCCC1CCOc1ccc([C@H]2CC[C@H]3CCCCN32)cc1` (mixture of isomers) [Example 90, trans-3-{4-[2,2′-(N-Amidinopiperidinyl)ethoxy]phenyl}octahydroindolizine], for which the Ki is 80 nM.

The compound `CC(C)(C)OC(=O)N1CCCCC1CCOc1ccc([C@H]2CC[C@H]3CCCCN32)cc1` (mixture of isomers) [Example 85, trans-3-{4-[2,2′-(1-tert-Butylcarboxylatepiperidinyl)ethoxy]phenyl}-octahydroindolizine] gave a Ki of 51 nM.

For `O=S(=O)(Nc1ccc([C@@H]2CC[C@@H]3CCCCN32)cc1)C1CCCNC1` (relative stereo) [Example 117, trans-3-[4-(3-Piperidylsulfonylamino)phenyl]octahydroindolizine], affinity was put at a Ki of 4 nM.

`CS(=O)(=O)Nc1ccc([C@@H]2CC[C@@H]3CCCCN32)cc1` (relative stereo) [Example 97, trans-3-(4-(Methylsulfonylamino)phenyl)octahydroindolizine] showed a Ki of 481 nM.

`CS(=O)(=O)Nc1ccc(Sc2ccc([C@@H]3CCC[C@@H]4CCCN43)cc2)cc1` (racemic) [Example 41, 5-[4-(4-Methanesulfonaminophenylthio)phenyl]octahydroindolizine] registered a Ki of 75 nM.

For the compound `c1ccc(N2CCN(Cc3ccc([C@H]4CC[C@H]5CCCCN54)cc3)CC2)cc1` (racemic) [Example 23, trans-3-[4-(N-Phenyl-1-piperazinylmethyl)phenyl]octahydroindolizine], the affinity corresponds to a Ki of 65 nM.

`NC(=NO)c1ccc(Sc2ccc([C@H]3CC[C@H]4CCCCN43)cc2)cc1` (racemic) [Example 43, tran-3-[4-((4-Amidoxime)phenylthio)phenyl]octahydroindolizine] returned a Ki of 40 nM.

Compound `CN(c1ccc([C@@H]2CC[C@@H]3CCCCN32)cc1)S(=O)(=O)C1CCCNC1` (relative stereo) [Example 118, trans-3-[4-(3-Piperidylsulfonyl-N-methylamino)phenyl]octahydroindolizine] returned a Ki of 61 nM.

For `c1cc([C@H]2CC[C@H]3CCCCN32)ccc1OCCC1CCCCN1` (stereo partly drawn) [Example 86, trans-3-[4-(2,2′-piperidinylethoxy)phenyl]octahydroindolizine], the Ki is 90 nM.

For the compound `c1cc([C@@H]2CC[C@@H]3CCCCN32)ccc1NC1CCNCC1` (relative stereo) [Example 101, trans-3-[4-(4-Piperidinylamino)phenyl]octahydroindolizine], the Ki came out at 314 nM.

The compound `O=C(CCN1CCCCC1)Nc1ccc([C@@H]2CC[C@@H]3CCCCN32)cc1` (relative stereo) [Example 105, trans-3-[4-(N-3-Piperidinylpropanamido)phenyl]octahydroindolizine] had a Ki of 10 nM.

Turning to `CN(c1ccc([C@H]2CC[C@H]3CCCCN32)cc1)S(C)(=O)=O` (racemic) [Example 99, trans-3-(4-(N-Methyl-N-methylsulfonylamido)phenyl)octahydroindolizine], the Ki was > 5000 nM.

Compound `O=C(CCCN1CCCCC1)Nc1ccc([C@@H]2CC[C@@H]3CCCCN32)cc1` (relative stereo) [Example 111, trans-3-[4-(N-4-Piperidylbutanamido)phenyl]octahydroindolizine] yielded a Ki of 3 nM.

Regarding `Nc1ccc([C@@H]2CC[C@@H]3CCCCN32)cc1` (relative stereo) [Example 95, trans-3-(4-Aminophenyl)octahydroindolizine], the Ki was 32 nM.

As to `c1csc(-c2ccc([C@H]3CC[C@H]4CCCCN43)cc2)c1` (racemic) [Example 50, 3-(4-Thiophen-2-yl-phenyl)-octahydro-indolizine], the affinity corresponds to a Ki of 173 nM.

Take `CN1CCCCC1CCOc1ccc([C@H]2CC[C@H]3CCCCN32)cc1` (mixture of isomers) [Example 87, trans-3-{4-[2,2′-(N-Methylpiperidinyl)ethoxy]phenyl}octahydroindolizine]: the affinity corresponds to a Ki of 7 nM.

The compound `C=CC(=O)Nc1ccc([C@@H]2CC[C@@H]3CCCCN32)cc1` (relative stereo) [Example 107, N-[4-(trans-Octahydro-3-indolizinyl)phenyl]propenamide] displayed a Ki of 327 nM.

As for `CS(=O)(=O)Nc1cccc(-c2ccc([C@H]3CC[C@H]4CCCCN43)cc2)c1` [Example 55, tran-3-[4-(3-Methylsulfonylaminophenyl)phenyl]octahydroindolizine], the Ki was found to be 320 nM.

Regarding `O=[N+]([O-])c1ccc(Oc2ccc([C@H]3CC[C@H]4CCCCN43)cc2)cc1` (racemic) [Example 77, trans-3-[4-(4-Nitrophenoxy)phenyl]octahydroindolizine], the Ki stood at 1560 nM.

For `Nc1ccc(Sc2ccc([C@H]3CC[C@H]4CCCCN43)cc2)cc1` (racemic) [Example 40, tran-3-[4-(4-Aminophenylthio)phenyl]octahydroindolizine], the Ki was 62 nM.

`c1cc([C@H]2CC[C@H]3CCCCN32)ccc1OCCCN1CCCCC1` (racemic) [Example 92, trans-3-(4-(3-Piperidinylpropoxy)phenyl)octahydroindolizine] had a Ki of 0.3 nM.

As to `O=C(N1CCCCC1CCOc1ccc([C@H]2CC[C@H]3CCCCN32)cc1)C(F)(F)F` (mixture of isomers) [Example 88, trans-3-{4-[2,2′-(N-Trifluoroacetylpiperidinyl)ethoxy]phenyl}octahydroindolizine], the inhibition constant (Ki) amounted to 71 nM.

Still in this experiment, the particulars now being: [3H]-N-methylhistamine binding; value printed under example heading without unit.
Consider `O/N=C\c1ccsc1-c1ccc([C@H]2CC[C@H]3CCCCN32)cc1` (racemic) [Example 54, tran-3-[4-(3-hydroxyiminomethylthienyl)phenyl]octahydroindolizine], for which the affinity, expressed as Ki, was 1480 nM.

One may read the Ki as the equilibrium dissociation constant of an inhibitor or competing ligand from its target.
